Measurements as given in patent US11207331B2, “Agents, compositions and methods for enhancing neurological function” (University of Southern California, priority 2007, dated 2021).
Entries after “also recorded” stand apart in the source; their conditions may differ.

Tests used:
[1] = test system: mouse dentate gyrus subgranular zone (SGZ); assay: Unbiased stereology of BrdU-positive cells in dentate gyrus subgranular zone; format: in vivo; settings: for cell proliferation (normal BrdU+ cells) / pyknotic BrdU+ cell count after THP treatment: 24 hr; for pyknotic BrdU+ cell count after THP treatment: 6-months, 10 mg/kg s.c.
Procedure: Mice of each genotype and age received a subcutaneous (s.c.) injection of THP at a concentration of 10 mg/kg body weight (BW), an optimal dose of THP-[…] based on our previous studies. One hour after THP injection, mice were intraperitoneally (i.p.) injected with 100 mg/kg BW bromodeoxyuridine (BrdU). Two experimental paradigms were used: 1) THP treatment for behavior and cell survival assessment, in which animals received a single shot of THP/vehicle, followed by a 7-day neurogenesis and migration phase, followed by a 5-day trace-conditioning test followed 9 days later by a 1-day memory test, and scarified 21 days after a single THP injection at which time FACS analysis of BrdU positive cells was performed to assess cell survival; 2).
Acute THP treatment for cell proliferation assessment, in which animals received a single injection of THP/vehicle and were sacrificed 24 hr later followed by quantitative unbiased stereology of BrdU positive cells.
Mice were sacrificed 24 h after THP administration for cell proliferation assessment or at the end of memory test for cell survival assessment. On the day of sacrifice mice were deeply anesthetized with a combination of ketamine (100 mg/kg) and xylazine (10 mg/kg), and perfused with PBS. Brains were dissected into two hemispheres, and one hemisphere was fixed immediately in cold 4% paraformaldehyde and was used for either stereological analysis (cell proliferation) or FACS analysis (cell survival).
The fixed hemispheres from cell proliferation assessment experiment were sectioned into a series of 40 μm coronal sections and every sixth section in the series was processed for BrdU histolabeling by NeuroScience Associates (Knoxville, Tenn.). Prior to labeling, all slides were coded and the codes were not broken until analyses were completed. The number of BrdU labeled cells was determined by unbiased stereology (optical dissector). Systematic samplings of unbiased counting frames of 50 μm on a side with a 200 μm matrix spacing were produced using a semiautomatic stereology system (Zeiss Axiovert 200M fluorescent microscope as part of the 3iMarianas digital microscopy and a 60×SPlan apochromat oil objective (1.4 numerical aperture). Positive cells that intersected the uppermost focal (exclusion) plane and those that intersected the exclusion boundaries of the unbiased sampling frame were excluded from analysis. Cells that met analysis criteria through a 20 μm axial distance were counted according to the optical dissector principle. The granule cell layer reference volume was determined by summing the traced SGZ, granule cell areas for each section multiplied by the distance between sections sampled. The mean granule cell number per dissector volume was multiplied by the reference volume to estimate the total granule cell number. The stereologically determined number of BrdU-positive cells was related to the granule cell layer sectional volume and multiplied by the reference volume to estimate the total number of BrdU-positive cells.
Total BrdU labeled cells were quantified for 3, 6, 9, and 12 months non-Tg and 3×TgAD male mice. The serial brain sections were collected to analyze the effects of THP on BrdU incorporation by unbiased stereological analysis. Data are represented as mean±SEM (n≥4 in each group). […] PCNA, an S-phase cell cycle marker, was increased in THP compared to vehicle control in 3×TgAD mice in three month (FIG. 12B) and six month (FIG. 12C) mice as shown by immunoblot.
To decipher the THP effect in neurogenesis, cell proliferation assessment experiments were conducted. Following animal sacrifice and brain section staining, unbiased stereology was conducted in both non-Tg and 3×TgAD mice at three different ages.

[2] = test system: human neural progenitor cells (hNPC); assay: Proliferation and phenotype of human neural progenitor cells (hNPC); format: cell-based
Procedure: To determine the impact of THP on hNPC cell proliferation, a dose response (pM-nM) experiment was performed. Results of these analyses indicate:
To determine the impact of THP on the stability of hNPC phenotype, hNPCs were double labeled with BrdU, Tuj1 and MAP2, or GFAP.
To determine whether the same mechanisms of THP-induced proliferation in rodent derived NPCs could be generalized to humans, we determined the requirement of the GABAAR by antagonizing the GABAAR with bicuculline followed by assessment of THP-induced hNPC cell proliferation.

SVZ from 3×TgAD mice = assay: Unbiased stereology of BrdU-positive cells in subventricular zone; format: in vivo, mouse; settings: 10 mg/kg

`CC(=O)[C@H]1CC[C@H]2[C@@H]3CC[C@H]4C[C@H](O)CC[C@]4(C)[C@H]3CC[C@]12C` [THP, 3α-hydroxy-5α-pregnan-20-one] was tested, and the “increase in BrdU incorporation vs vehicle control group” value ([1]; 3×TgAD mice, 3 months, 10 mg/kg BW s.c., 24 hours) was 55+18%, the “cell proliferation (normal BrdU+ cells)” value ([1]; 3×TgAD mice, 6, 9, 12 months) was “no significant effect in cell proliferation” and the “pyknotic BrdU+ cell count after THP treatment” value ([1]; 3×TgAD mice) was 48.0±48.00. The “neurogenic deficit of 3×TgAD mice vs non-Tg (total BrdU cells)” value ([1]; 3×TgAD mice, one s.c. dose, 24 hours) was “restored proliferation to that of normal nontransgenic mice; also recorded: reversed the neurogenic deficit of the 3×TgAD mouse SGZ and restored normal levels of neurogenesis”, the “pyknotic cell population, vehicle vs THP” value ([1]; non-Tg and 3×TgAD mice, 9- and 12-months) was “no difference” and the “cell proliferation (normal BrdU+ cells)” value ([1]; non-Tg mice, 6, 9, 12 months) was “no effect on cell proliferation”. For the same compound, the “pyknotic BrdU+ cell count after THP treatment” value ([1]; non-Tg mice) was 576.0±185.49, the “efficacy as neurogenic factor compared with bFGF+heparin” value [2] was “exceeded that of bFGF+heparin” and the “proliferative efficacy compared with positive control bFGF” value ([2]; 250 nM THP) was “as efficacious a proliferative factor as the positive control, bFGF”. For the same compound, the “concentration at which proliferation was first evident” value ([2]; dose response) was 1 nM, the “concentration at which proliferative efficacy diminished” value ([2]; dose response) was 1000 nM and the “concentration of maximal proliferation” value ([2]; dose response, sustained at 250 and 500 nM) was 100 nM. The “increase in human neural progenitor cell proliferation” value ([2]; doses within an achievable therapeutic range) was 50%, the “number of BrdU positive hNPCs vs vehicle” value ([2]; double labeling) was “significantly increased” and the “proportion of Tuj1, MAP2 or GFAP cells vs vehicle” value ([2]; double labeling) was “not changing”. For the same compound, the “time at which hNPC proliferation reached maximum” value ([2]; time course) was 6 h, the “time at which hNPC proliferation was evident” value ([2]; time course) was 3 h and the “increase in BrdU-positive cells relative to untreated group” value (SVZ from 3×TgAD mice) was 58%.
